Measured values as given in patent US20230095912A1, “Composition and Methods for Selective Degradation of Engineered Proteins” (Celgene Corporation, priority 2021, published 2023).

Experiments:
[1] = system: IKZF1 ZNF2_3 Q1F tagged CD19 CAR; assay: Jurkat reporter assay (tdTomato), signaling of Q1F-tagged CAR after degradation; assay type: cell-based, human; details: 1 mM pre-treatment 12 hours, co-culture with CD19-expressing K562 8 hours
Protocol: A lentiviral vector encoding ZNF2_3 Q1F or Q1F/G6N tagged CD19 CAR was transduced into the reporter cell line. […] Levels of tdTomato in the form of the overall percent of positive cells (FIG. 12A), as well as mean fluorescence intensity (MFI, FIG. 12B) were assessed by flow cytometry. Degradation of CARs containing the ZNF2_3 Q1F degron decreased signaling by around 30% using 1 mM Compound C and by around 75% using Compound B; this relative difference correlates with the depth of degradation seen for each. Further, the reduction in activity depends upon having an intact G-motif, as the G6N mutation prevents inhibition.

Helios = target: T1, Helios (Homo sapiens, UniProt Q96SW2+Q9UKS7); assay: Helios HiBit degradation in Jurkat cells; assay type: cell-based
T1 construct: endogenous in cells; host or cells: Jurkat/Helios/HiBit cells (CRISPR/Cas9 knock-in)
T1 sequence (Q9UKS7 whole entry): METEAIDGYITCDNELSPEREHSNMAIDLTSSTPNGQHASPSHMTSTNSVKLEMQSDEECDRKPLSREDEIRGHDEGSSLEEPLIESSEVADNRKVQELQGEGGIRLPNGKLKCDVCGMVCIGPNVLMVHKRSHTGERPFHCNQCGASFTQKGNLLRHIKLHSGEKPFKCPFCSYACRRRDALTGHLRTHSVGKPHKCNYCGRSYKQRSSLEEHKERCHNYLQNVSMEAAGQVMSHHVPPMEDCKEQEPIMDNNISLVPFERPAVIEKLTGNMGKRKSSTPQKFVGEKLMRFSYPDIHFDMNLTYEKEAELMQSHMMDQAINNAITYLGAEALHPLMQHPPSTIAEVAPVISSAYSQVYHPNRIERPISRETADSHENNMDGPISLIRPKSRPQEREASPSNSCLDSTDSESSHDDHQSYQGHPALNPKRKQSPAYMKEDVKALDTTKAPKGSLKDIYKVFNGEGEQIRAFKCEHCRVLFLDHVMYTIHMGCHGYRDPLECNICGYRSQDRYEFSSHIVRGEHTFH
T1 sequence (Q96SW2 whole entry): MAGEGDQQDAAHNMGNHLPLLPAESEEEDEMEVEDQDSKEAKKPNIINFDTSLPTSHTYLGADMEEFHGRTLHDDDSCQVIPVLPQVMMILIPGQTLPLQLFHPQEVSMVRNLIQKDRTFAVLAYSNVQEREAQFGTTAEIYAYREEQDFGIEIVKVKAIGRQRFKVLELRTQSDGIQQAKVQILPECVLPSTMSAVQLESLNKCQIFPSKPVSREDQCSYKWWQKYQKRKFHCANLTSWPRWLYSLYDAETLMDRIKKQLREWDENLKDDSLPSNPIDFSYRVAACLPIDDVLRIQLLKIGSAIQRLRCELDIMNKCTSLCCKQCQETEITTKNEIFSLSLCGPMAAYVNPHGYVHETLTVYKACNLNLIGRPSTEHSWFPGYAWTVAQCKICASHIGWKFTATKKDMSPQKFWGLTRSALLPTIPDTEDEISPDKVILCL
T1 sequence (Q16531 whole entry partner): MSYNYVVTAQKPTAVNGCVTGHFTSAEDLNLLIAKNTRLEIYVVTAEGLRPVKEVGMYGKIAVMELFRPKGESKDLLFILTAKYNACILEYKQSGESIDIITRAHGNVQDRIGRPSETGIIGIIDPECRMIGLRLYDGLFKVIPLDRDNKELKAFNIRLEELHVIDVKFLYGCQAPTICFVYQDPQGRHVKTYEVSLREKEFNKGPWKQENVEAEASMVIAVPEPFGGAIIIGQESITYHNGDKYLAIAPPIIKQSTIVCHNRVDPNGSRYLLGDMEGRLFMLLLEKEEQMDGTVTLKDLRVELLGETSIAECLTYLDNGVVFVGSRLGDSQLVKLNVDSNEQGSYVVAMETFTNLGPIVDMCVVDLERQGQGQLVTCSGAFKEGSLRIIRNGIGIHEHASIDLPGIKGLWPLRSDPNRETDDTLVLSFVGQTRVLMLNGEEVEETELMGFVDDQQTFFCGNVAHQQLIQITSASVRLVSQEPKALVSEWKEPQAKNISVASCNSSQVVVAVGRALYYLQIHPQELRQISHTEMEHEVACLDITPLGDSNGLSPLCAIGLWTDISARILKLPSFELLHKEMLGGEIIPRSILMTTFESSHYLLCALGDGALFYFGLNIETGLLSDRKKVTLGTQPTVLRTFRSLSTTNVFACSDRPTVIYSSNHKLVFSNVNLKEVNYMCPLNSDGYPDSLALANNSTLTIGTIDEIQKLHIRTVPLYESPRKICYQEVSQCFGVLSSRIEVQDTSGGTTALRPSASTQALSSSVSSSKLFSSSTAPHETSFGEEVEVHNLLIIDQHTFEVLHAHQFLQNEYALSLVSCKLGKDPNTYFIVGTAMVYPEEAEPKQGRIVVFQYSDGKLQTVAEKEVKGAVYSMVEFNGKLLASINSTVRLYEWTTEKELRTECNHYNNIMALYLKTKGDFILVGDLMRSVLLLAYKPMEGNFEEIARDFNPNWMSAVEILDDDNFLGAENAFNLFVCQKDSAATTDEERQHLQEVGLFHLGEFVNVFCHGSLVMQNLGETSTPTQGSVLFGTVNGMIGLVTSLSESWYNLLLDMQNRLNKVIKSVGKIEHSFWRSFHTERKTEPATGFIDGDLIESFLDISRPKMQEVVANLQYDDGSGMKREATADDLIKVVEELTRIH
Protocol: For Helios, a stable Jurkat cell line was engineered using CRISPR/Cas9 to insert an in-frame HiBit tag into the carboxy-terminal reading frame of the IKZF2 gene. Test compounds were transferred to 1536 well plates using an acoustic dispenser, and Jurkat/Helios/HiBit cells in DMEM/10% FCS were plated at 10,000 cells/well in a final volume of 5 ul. Cells were incubated at 37C, 95% RH for 18 hr. Luciferase activity was measured by adding 2 ul/well of Nano-Glo reagent (Promega), incubating at RT for 30 min, and reading luminescence on a microtiter plate reader.
All substrate degradation curves were processed and evaluated using ActivityBase (IDBS), a data analysis software package. Ymin is minimum percent protein remaining.

[2] = system: IKZF1 ZNF2_3 Q1F tagged anti-ROR1 CAR; assay: CAR surface levels in primary T cells, flow cytometry; assay type: cell-based, human; details: dose titration
Protocol: The ability to use compounds to titrate primary CAR T effector function by degrading IKZF1 ZNF2_3 Q1F tagged anti-ROR1 CAR (FIG. 13A) was evaluated. The CAR included similar transmembrane, costimulatory, and signaling domains as the CD19 CAR, but with an anti-ROR1 scFv. A lentiviral vector encoding ZNF2_3 Q1F tagged or untagged anti-ROR1 CAR was transduced into activated primary T cells. Transduced cells were expanded for 10 days in media supplemented with IL2, IL7, and IL15, then frozen. Prior to the experiment, cells were thawed and allowed to rest in media with a dose titration of Compound C or without drug. […] To determine the impacts of CAR degradation on CAR T activity, cells were then co-cultured with a Nuclight red labeled H-1975 ROR1 expressing target cell line at a 1:4 effector:target cell ratio. Co-cultures were placed in the Incucyte for 24 hours to monitor tumor killing via Nuclight red signal (FIG. 14A), and supernatants were collected to measure proinflammatory cytokine production by MSD (FIG. 14B-14D; IL-2, TNFα, and IFNγ).

- Ymin (%) (Helios): 86%
- DC50 (Helios; Helios, Jurkat/Helios/HiBit cells, 18 hr, read-out: EC50 (the source's name)): > 10 µM
SMILES: Cc1ncccc1N1CCN(Cc2ccc3c(c2)CN(C2CCC(=O)NC2=O)C3=O)CC1 (stereo not shown) [Compound C, 3-(5-((4-(2-methylpyridin-3-yl)piperazin-1-yl)methyl)-1-oxoisoindolin-2-yl)piperidine-2,6-dione]
- decrease of signaling (tdTomato reporter) [1]: around 30%
- surface levels of ZNF2_3 Q1F-tagged CAR [2]: could be titrated
